# Results reported in ChEMBL document CHEMBL1649074, “Aurora kinase inhibitors based on the imidazo[1,2-a]pyrazine core: fluorine and deuterium incorporation improve oral absorption and exposure” (J Med Chem, 2011).
# Key:
# Aurora kinase B [1] = target: T1, Aurora kinase B (Homo sapiens, UniProt Q96GD4); assay: Inhibition of Aurora B
# Aurora kinase B [2] = target: T1, Aurora kinase B; assay: Inhibition of Aurora B in human HCT116 cells assessed as inhibition of histone H3 phosphorylation by immunofluorescence assay; assay type: cell-based, HCT-116
# [3] = AUC (0 to 6 hrs) in rat at 10 mg/kg, po; assay type: ADME, organism-based; parameters: time < 6 hr, dose 10 mg/kg, route oral; conditions: plasma
# Aurora kinase A = target: T2, Aurora kinase A (Homo sapiens, UniProt O14965); assay: Inhibition of Aurora A
# T2 sequence (O14965 whole entry): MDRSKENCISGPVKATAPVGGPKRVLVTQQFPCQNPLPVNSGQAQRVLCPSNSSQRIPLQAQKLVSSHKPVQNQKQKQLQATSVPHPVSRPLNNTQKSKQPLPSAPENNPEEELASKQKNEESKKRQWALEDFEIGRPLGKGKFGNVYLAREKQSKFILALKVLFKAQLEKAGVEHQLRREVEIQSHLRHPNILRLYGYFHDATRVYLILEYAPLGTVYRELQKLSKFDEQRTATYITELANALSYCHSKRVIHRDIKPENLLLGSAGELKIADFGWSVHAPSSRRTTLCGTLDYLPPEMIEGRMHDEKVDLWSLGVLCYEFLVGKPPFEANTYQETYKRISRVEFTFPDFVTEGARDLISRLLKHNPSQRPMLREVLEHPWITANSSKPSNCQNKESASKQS
# [4] = Plasma clearance in rat; assay type: ADME, organism-based
# [5] = Oral bioavailability in cynomolgus monkey at 10 mg/kg; assay type: ADME, organism-based, Macaca fascicularis; conditions: in vivo
# [6] = Oral AUC in cynomolgus monkey at 10 mg/kg, po; assay type: ADME, organism-based, Macaca fascicularis; parameters: dose 10 mg/kg, route oral; conditions: in vivo
# [7] = Oral bioavailability in Beagle dog at 10 mg/kg; assay type: ADME, organism-based, Canis lupus familiaris; conditions: beagle, in vivo
# [8] = Oral AUC in Beagle dog at 10 mg/kg, po; assay type: ADME, organism-based, Canis lupus familiaris; parameters: dose 10 mg/kg, route oral; conditions: in vivo
# [9] = Oral bioavailability in Sprague-Dawley rat at 30 mg/kg; assay type: ADME, organism-based; conditions: in vivo
# [10] = AUC in CD1 mouse at 50 mg/kg, po; assay type: ADME, organism-based; parameters: dose 50 mg/kg, route oral; conditions: plasma
# [11] = Oral bioavailability in CD1 mouse at 50 mg/kg; assay type: ADME, organism-based; conditions: in vivo
# [12] = Oral AUC in Sprague-Dawley rat at 30 mg/kg, po; assay type: ADME, organism-based; parameters: dose 30 mg/kg, route oral; conditions: in vivo
# T1 sequence (Q96GD4 whole entry): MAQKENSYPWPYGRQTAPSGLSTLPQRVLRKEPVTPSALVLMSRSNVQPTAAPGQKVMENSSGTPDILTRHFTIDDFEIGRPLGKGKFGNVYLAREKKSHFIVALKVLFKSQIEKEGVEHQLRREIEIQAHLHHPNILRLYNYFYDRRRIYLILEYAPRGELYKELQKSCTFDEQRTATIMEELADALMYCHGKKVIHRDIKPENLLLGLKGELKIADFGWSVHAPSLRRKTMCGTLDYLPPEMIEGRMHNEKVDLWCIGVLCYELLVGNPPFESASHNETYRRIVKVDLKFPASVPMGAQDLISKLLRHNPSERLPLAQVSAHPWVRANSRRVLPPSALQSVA
Compound,IC50 (Aurora kinase B [1]) [nM],IC50 (Aurora kinase B [2]) [nM],AUC(0-t) at 6 h [3] [µM·h],IC50 (Aurora kinase A) [nM],clearance [4] [mL/min/kg],bioavailability [5] [%],AUC [6] [µM·h],bioavailability [7] [%],AUC [8] [µM·h],bioavailability [9] [%],AUC [10] [µM·h],bioavailability [11] [%],AUC [12] [µM·h]
Cc1cn2c(-c3cn[nH]c3)cnc2c(Nc2cc(CN3CCC(C(F)(F)F)CC3)ns2)n1.Cl,≤ 13,218,1.34,≤ 4,–,–,–,–,–,–,–,–,–
Cc1cn2c(-c3cn[nH]c3)cnc2c(Nc2cc(CN3CCCC(F)(F)C3)ns2)n1.Cl,≤ 13,79,1.56,≤ 4,–,–,–,–,–,–,–,–,–
Cc1cn2c(-c3cn[nH]c3)cnc2c(Nc2cc(CN3CC[C@H](F)C3)ns2)n1.Cl,≤ 13,93,0.76,≤ 4,–,–,–,–,–,–,–,–,–
Cl.[2H]C([2H])(NCCC(F)(F)F)c1cc(Nc2nc(C)cn3c(-c4cn[nH]c4)cnc23)sn1,–,–,–,–,5.1,–,–,–,–,–,–,–,–
Cc1cn2c(-c3cn[nH]c3)cnc2c(Nc2cc(CN3CCCC(F)C3)ns2)n1.Cl (stereo not given),≤ 13,193,1.21,≤ 4,–,–,–,–,–,–,–,–,–
Cc1cn2c(-c3cn[nH]c3)cnc2c(Nc2cc(CN3CC[C@@H](F)C3)ns2)n1.Cl,≤ 13,82,0.74,≤ 4,–,–,–,–,–,–,–,–,–
Cc1cn2c(-c3cn[nH]c3)cnc2c(Nc2cc(CNCC(F)(F)C(F)(F)F)ns2)n1.Cl,≤ 13,51,3.42,≤ 4,–,–,–,–,–,–,–,–,–
Cc1cn2c(-c3cn[nH]c3)cnc2c(Nc2cc(CN3CC(F)(F)C(F)(F)C3)ns2)n1.Cl,≤ 13,50,0.11,≤ 4,–,–,–,–,–,–,–,–,–
Cc1cn2c(-c3cn[nH]c3)cnc2c(Nc2cc(CN3CCC(F)CC3)ns2)n1.Cl,≤ 13,86,2.2,≤ 4,–,3,0.4,38,6.1,21,1.2,10,8
Cc1cn2c(-c3cn[nH]c3)cnc2c(Nc2cc(CN(CC(F)F)C(C)(C)CO)ns2)n1.Cl,≤ 13,306,0.28,≤ 4,–,–,–,–,–,–,–,–,–
Cc1cn2c(-c3cn[nH]c3)cnc2c(Nc2cc(CN(CC(F)(F)F)C(C)(C)CO)ns2)n1.Cl,≤ 13,198,0.86,≤ 4,–,–,–,–,–,–,–,–,–
Cc1cn2c(-c3cn[nH]c3)cnc2c(Nc2cc(CN3CC(F)C3)ns2)n1.O=C(O)C(F)(F)F,≤ 13,191,0.18,≤ 4,–,–,–,–,–,–,–,–,–
Cc1cn2c(-c3cn[nH]c3)cnc2c(Nc2cc(CN3CCCC3)ns2)n1,≤ 13,88,–,≤ 4,–,–,–,–,–,–,–,–,–
Cc1cn2c(-c3cn[nH]c3)cnc2c(Nc2cc(CN3CCC(F)(F)CC3)ns2)n1.Cl,≤ 13,74,0.95,≤ 4,–,–,–,–,–,–,–,–,–
Cc1cn2c(-c3cn[nH]c3)cnc2c(Nc2cc(CN3CCCCC3)ns2)n1.Cl,≤ 13,45,0.21,≤ 4,80,–,–,–,–,–,–,–,–
Cl.[2H]C([2H])(c1cc(Nc2nc(C)cn3c(-c4cn[nH]c4)cnc23)sn1)N1CCCCC1,–,–,–,–,35,–,–,–,–,–,–,–,–
Cc1cn2c(-c3cn[nH]c3)cnc2c(Nc2cc(CN3CC(F)(F)C3)ns2)n1.O=C(O)C(F)(F)F,≤ 13,76,12.1,≤ 4,–,–,0.1,–,3.8,12,7.1,–,7.1
Cc1cn2c(-c3cn[nH]c3)cnc2c(Nc2cc(CNCCC(F)(F)F)ns2)n1.Cl,≤ 13,63,10.9,≤ 4,12,–,0.03,–,0.3,22,11.1,–,20.5
